Among the data in PubChem BioAssay (NCI) are GI50 and TGI values, retold here.

Several values for one entry are separate records, joined by “and”; a condition that tells them apart may be missing. Equal entries are not always repeated.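 Five concentrations, 48 hours, 96-well plates. Here, GI50 denotes the concentration required for 50% inhibition of growth. TGI: concentration producing complete growth inhibition.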

The test system of one test is SK-MEL-2 melanoma. Put plainly: inhibition of tumour cell growth, NCI panel, 48 h.
Take `CCCCCCCCCCCCCCCCCCOC[C@H](COP(=O)(O)O[C@H]1[C@H](O)[C@@H](O)[C@H](O)C[C@H]1O)OC`: the GI50 is > 100 µM and 16.3 µM; the TGI was > 100 µM and 30.2 µM.

`CN(C)C/C=C/C(=O)Nc1ccc(C(=O)N[C@@]2(C)CCC[C@@H](Nc3ncc(Cl)c(-c4c[nH]c5ccccc45)n3)C2)nc1`: the GI50 was 0.0129 µM and the TGI is 0.0511 µM.

`CC(C)C(O)(C(C)C)C(C)C`: the TGI is over 100 µM.

In the case of `COc1ccc2c(c1)C(=O)CCc1cc(OC)c(OC)c(OC)c1-2`, the GI50 is under 0.01 µM.

As to `CCN(CC)CCNC(Cc1ccccc1)c1ccc(OCc2ccccc2)cc1` (stereo unspecified), the GI50 is 3.42 µM and the TGI came out at 9.74 µM.

As to `Cn1c(Cl)c(/C=C2/C(=O)Nc3ccccc32)c2ccccc21`, the GI50 is 2.32 µM and the TGI was 26.1 µM.

Turning to `O=C1C(=O)c2ccccc2C(O)=C1C(C1=C(O)c2ccccc2C(=O)C1=O)c1ccc(Cl)cc1`, the TGI is 24.1 µM.

Turning to `C=C(C)[C@@H]1CC[C@]2(COCCCN)CC[C@]3(C)[C@H](CC[C@@H]4[C@@](C)(CCCNCCCN)[C@H](C(=C)C)CC[C@]43C)[C@@H]12`, the GI50 was 1.89 µM and the TGI is 3.71 µM.

In the case of `O=C(O)CSCCc1ccccc1`, the TGI was over 100 µM.

On to `CCOC1C(Br)Cn2c(=O)c3cc4ccccc4cc3c(=O)n2C1C` (stereo unspecified), for which the TGI is over 100 µM.

The compound `O=NNc1ccc2ccccc2n1` had a TGI of over 100 µM.

As for `O=C(O)CCCc1ccc2ccc3ccccc3c2c1`, the TGI was over 100 µM.

Compound `CCCC1(CC(=O)O)OCCc2c1[nH]c1ccccc21` (stereo unspecified) yielded a TGI of over 100 µM.

`CN(C)Cc1cc(C(F)(F)F)ccc1C(O)(c1ccccc1)c1ccccc1`: the TGI came to 41 µM.

With `CSC(SC)(C(=O)O)c1cc(-c2c(Cl)cccc2Cl)no1`, the TGI is over 100 µM.

As for `COc1ccc2nc3cc(Cl)ccc3c(Sc3ccc([N+](=O)[O-])cc3C)c2c1`, the TGI is over 100 µM.

For another test, the system named is SK-MEL-28 melanoma. The test can be described thus: inhibition of tumour cell growth, NCI panel, 48 h.
As to `CCN1C(=O)c2ccc3c4c(ccc(c24)C1=O)C(=O)N(CCCNCc1ccccc1OC)C3=O`, the GI50 is 1.58 µM and the TGI is 3.24 µM.

Turning to `O=C(/C=C/c1ccccc1)Nc1ncc(Cc2ccccc2Cl)s1`, the GI50 is 1.5 µM and the TGI is over 100 µM.

Take `CN(c1ccc(NC(=O)Nc2c(Cl)cccc2Cl)cc1)c1ccnc(Nc2cccc(CS(C)(=O)=O)c2)n1`: the GI50 is 3.56 µM and the TGI was 9.47 µM.

Consider `CCCCCCCCCCCCCCCCCCOC[C@H](COP(=O)(O)O[C@H]1[C@H](O)[C@@H](O)[C@H](O)C[C@H]1O)OC`, for which the TGI was > 100 µM and 33.8 µM.

With `CN(C)C/C=C/C(=O)Nc1ccc(C(=O)N[C@@]2(C)CCC[C@@H](Nc3ncc(Cl)c(-c4c[nH]c5ccccc45)n3)C2)nc1`, the GI50 was under 0.01 µM and the TGI came out at 0.118 µM.

With `CC(C)C(O)(C(C)C)C(C)C`, the TGI is over 100 µM.

With `COc1ccc2c(c1)C(=O)CCc1cc(OC)c(OC)c(OC)c1-2`, the GI50 was 24.8 µM and the TGI was over 100 µM.

On to `CCN(CC)CCNC(Cc1ccccc1)c1ccc(OCc2ccccc2)cc1` (stereo unspecified), for which the GI50 was 1.85 µM and the TGI turned out to be 4.03 µM.

Regarding `Cn1c(Cl)c(/C=C2/C(=O)Nc3ccccc32)c2ccccc21`, the GI50 was 1.08 µM and the TGI turned out to be 19.7 µM.

`O=C1C(=O)c2ccccc2C(O)=C1C(C1=C(O)c2ccccc2C(=O)C1=O)c1ccc(Cl)cc1` registered a TGI of 55.5 µM.

For `C=C(C)[C@@H]1CC[C@]2(COCCCN)CC[C@]3(C)[C@H](CC[C@@H]4[C@@](C)(CCCNCCCN)[C@H](C(=C)C)CC[C@]43C)[C@@H]12`, the GI50 is 1.72 µM and the TGI is 3.14 µM.

For the compound `O=C(O)CSCCc1ccccc1`, the TGI was over 100 µM.

Compound `CCOC1C(Br)Cn2c(=O)c3cc4ccccc4cc3c(=O)n2C1C` (stereo unspecified) yielded a TGI of over 100 µM.

Compound `O=NNc1ccc2ccccc2n1` had a TGI of over 100 µM.

On to `O=C1NC(=S)S/C1=C/c1ccc2c(c1)OCO2`, for which the GI50 is over 100 µM and the TGI is over 100 µM.

Take `O=C(O)CCCc1ccc2ccc3ccccc3c2c1`: the TGI was over 100 µM.

`CCCC1(CC(=O)O)OCCc2c1[nH]c1ccccc21` (stereo unspecified) showed a TGI of over 100 µM.

Take `CN(C)Cc1cc(C(F)(F)F)ccc1C(O)(c1ccccc1)c1ccccc1`: the TGI turned out to be 31 µM.

As for `CSC(SC)(C(=O)O)c1cc(-c2c(Cl)cccc2Cl)no1`, the TGI was over 100 µM.

In turn, `COc1ccc2nc3cc(Cl)ccc3c(Sc3ccc([N+](=O)[O-])cc3C)c2c1` returned a TGI of over 100 µM.

The test system of the next test is SN12C renal. Put plainly: inhibition of tumour cell growth, NCI panel, 48 h.
For the compound `CCN1C(=O)c2ccc3c4c(ccc(c24)C1=O)C(=O)N(CCCNCc1ccccc1OC)C3=O`, the GI50 was 0.327 µM and the TGI is 1.32 µM.

With `O=C(/C=C/c1ccccc1)Nc1ncc(Cc2ccccc2Cl)s1`, the GI50 is 0.623 µM and the TGI was over 100 µM.

On to `CN(c1ccc(NC(=O)Nc2c(Cl)cccc2Cl)cc1)c1ccnc(Nc2cccc(CS(C)(=O)=O)c2)n1`, for which the GI50 is 3.37 µM and the TGI was determined as 10.6 µM.

Take `CCCCCCCCCCCCCCCCCCOC[C@H](COP(=O)(O)O[C@H]1[C@H](O)[C@@H](O)[C@H](O)C[C@H]1O)OC`: the GI50 is > 100 µM and 12.2 µM; the TGI was > 100 µM and 25.2 µM.

Turning to `CC(C)C(O)(C(C)C)C(C)C`, the TGI was over 100 µM.

In the case of `COc1ccc2c(c1)C(=O)CCc1cc(OC)c(OC)c(OC)c1-2`, the GI50 was under 0.01 µM and the TGI is over 100 µM.

Take `CCN(CC)CCNC(Cc1ccccc1)c1ccc(OCc2ccccc2)cc1` (stereo unspecified): the GI50 was 6.68 µM and the TGI was 20.8 µM.

Consider `Cn1c(Cl)c(/C=C2/C(=O)Nc3ccccc32)c2ccccc21`, for which the GI50 is 1.87 µM and the TGI came out at 23.7 µM.

As to `O=C1C(=O)c2ccccc2C(O)=C1C(C1=C(O)c2ccccc2C(=O)C1=O)c1ccc(Cl)cc1`, the TGI amounted to 3.66 µM.
